System: Lactobacillus gasseri (FERM BP-11331)
Test: Growth-promoting effect on Lactobacillus gasseri in modified MRS medium (particle count)
Assay type: cell-based
Details: Example 1, peptide 0.25 mg/mL, 37° C., 18 hours; for Particle concentration: inoculum 1.0×10^7 cells/mL; for Rate of increase: control without peptide = 100%
Text: Nitrogen sources in MRS medium were reduced to find a medium composition that achieves a total bacterial count of about 1.0×10^8 cell/mL to 1.0×10^9 cell/mL after culturing of each of the six bacterial strains Lactobacillus gasseri (FERNM BP-11331), Lactobacillus acidophilus (FERM BP-4981), Lactobacillus amylovorus (FERM BP-11255), Lactobacillus curvatus (NITE P-02033), Lactobacillus plantarum, and Lactobacillus brevis. This composition, named “modified MRS medium”, was used for the evaluation. Here, for the composition of the MRS medium, a composition described in a medium catalog provided by BD (Becton, Dickinson and Company) was used as a reference. The compositions of the MRS medium and the modified MRS medium are as follows. By chemical synthesis, 28 kinds of candidate peptides having the sequences shown below were provided. Each candidate peptide was added to the modified MRS medium at 0.25 mg/mL to provide a medium to be evaluated. The lactic acid bacterium Lactobacillus gasseri was inoculated at 1.0×10^7 cells/mL to the provided medium to be evaluated, and culture was carried out at a temperature of 37° C. for a culture period of 18 hours. The resulting culture was collected, and subjected to measurement of the particle concentration (particles/mL) as a characteristic value that can be used as an index of the bacterial cell growth, using a particle count analyzer (CDA-1000, Sysmex). The rate of increase (%) was calculated relative to a control value obtained using a medium to which no peptide was added, which was taken as 100%. Using the dipeptide LF (Leu-Phe) and an equimolar mixture of leucine (L) and phenylalanine (F), culture was carried out in the same manner as in Example 1, and the growth-promoting effects of the dipeptide and the amino acid mixture on the lactic acid bacterium were evaluated. Using a dipeptide (LF) as the peptide, the growth-promoting effect on a lactic acid bacterium was evaluated in the same manner except that the concentration of the dipeptide added was 0.1 mg/mL, 0.25 mg/mL, or 1.0 mg/mL.

Row | Substance | Particle concentration [mL⁻¹] | Rate of increase [%]
1 | HDDKHIIVD (listed as Saccharomyces cerevisiae) [His-Asp-Asp-Lys-His-Ile-Ile-Val-Asp] | 2.25e+08 | 114
2 | Ile-Phe [IF] | 2.01e+08 | 114
3 | Ile-Pro-Gln [IPQ] | 1.82e+08 | 99
4 | Ile-Pro-Gly-Ile (IPGI; listed as Saccharomyces cerevisiae) | 2.19e+08 | 119
5 | Ile-Pro-Ile-Gln (IPIQ; listed as Saccharomyces cerevisiae) | 2.11e+08 | 115
6 | Ile-Pro-Ile-Thr (IPIT; listed as Saccharomyces cerevisiae) | – | 121
7 | Ile-Pro-Thr [IPT] | 1.79e+08 | 98
8 | Ile-Val-Glu [IVE] | 1.81e+08 | 96
9 | Leu-Pro-Gln [LPQ] | 1.97e+08 | 107
10 | Leu-Pro-Leu-Gly (LPLG; listed as Saccharomyces cerevisiae) | 2.2e+08 | 120
11 | Leu-Pro-Thr [LPT] | 1.9e+08 | 104
12 | Leu-Pro-Val-Leu (LPVL; listed as Saccharomyces cerevisiae) | 2.07e+08 | 113
13 | Leu-Val-Glu [LVE] | 1.96e+08 | 104
14 | PNVLPETE (listed as Saccharomyces cerevisiae) [Pro-Asn-Val-Leu-Pro-Glu-Thr-Glu] | 2e+08 | 101
15 | Phe-Leu [FL] | 1.98e+08 | 112
16 | SEYPPLG (listed as Saccharomyces cerevisiae) [Ser-Glu-Tyr-Pro-Pro-Leu-Gly] | 2.36e+08 | 119
17 | Val-Pro-Ile [VPI] | 2.11e+08 | 112
18 | Val-Pro-Leu [VPL] | 2.01e+08 | 107
19 | Val-Pro-Val-Gly (VPVG; listed as Saccharomyces cerevisiae) | 1.76e+08 | 102
20 | WDESRFQ (listed as Saccharomyces cerevisiae) [Trp-Asp-Glu-Ser-Arg-Phe-Gln] | 2.38e+08 | 120
